The conditions of the data set: 14-membered ring, Cs2CO3, DMF, 85.0 °C.
The mark [1] stands for this setting: from O=C(NC[C@H](O)CCl)c1cnn2ccc(N3CC(F)(F)CC3c3cc(F)ccc3O)nc12, ether bond, 20.0 mM.

Read-outs that look alike come from different tables or passages of the source.

`O=C1NC[C@H](O)Cn2cc(F)cc(c2=O)[C@H]2CCCN2c2ccn3ncc1c3n2` showed a ring closure, isolated yield (from N—((S)-3-chloro-2-hydroxypropyl)-5-4R)-2-(5-fluoro-2-oxo-1,2-dihydropyridin-3-yl)pyrrolidin-1-yl)pyrazolo[1,5-a]pyrimidine-3-carboxamide hydrochloride, other bond, […]) of 12%. Under setting [1], `O=C1NC[C@H](O)COc2ccc(F)cc2C2CC(F)(F)CN2c2ccn3ncc1c3n2` (single isomer, unassigned; diastereomer 1) gave a ring closure, isolated yield of 20%. Still for that read-out and setting: with `O=C1NC[C@H](O)COc2ccc(F)cc2C2CC(F)(F)CN2c2ccn3ncc1c3n2` (single isomer, unassigned; diastereomer 2) the figure was 24%.
